Patent US7063861B2, “Bioavailable composition of natural and synthetic HCA” (Sabinsa Corporation, priority 2000, dated 2006)

Key:
[1] = Oral administration of garcinol, HCA and combination: body weight, food and fluid consumption in SKH-1 mice; type: in vivo; conditions: 0.05% GAR, 1% HCA, Mean ± SE
[2] = tested on: azoxymethane (AOM)-induced formation of aberrant colonic crypts (AC); test: Azoxymethane (AOM)-induced formation of aberrant colonic crypts in CF-1 mice; type: in vivo; conditions: 10 week oral, 0.05% GAR, 1% HCA
[3] = Body weight and accumulation of fat in abdomen in CF-1 mice, 10 week oral administration; type: in vivo; conditions: 0.05% GAR, 1% HCA; for Body weight: AOM
TPA-induced ear edema = TPA-induced ear edema in female CF-1 mice; type: in vivo; conditions: 5 hours; for Weight per punch: mean ± SE
Method: The role of garcinol as a chemopreventive agent has been confirmed in an experiment in which CF-1 mice were treated topically with the inflammation and tumor promoting agent, TPA. [table]

ATP citrate lyase enzyme = conditions: in vitro, purified enzyme; cited from earlier work
[4] = oral, before the feeding period; versus untreated controls; cited from earlier work
[5] = rats fed (−) HCA; cited from earlier work
ATP citrate lyase [6] = molecular target: T1, ATP citrate lyase (Homo sapiens, UniProt P53396); test: Inhibition of ATP citrate lyase in hepatic cells in vitro; type: cell-based; conditions: extracellular versus cytosol
T1 construct: an in vitro study done on hepatic cells; endogenous in cells; host or cells: hepatic cells (species and cell type not specified)
T1 sequence (P53396 1-1101): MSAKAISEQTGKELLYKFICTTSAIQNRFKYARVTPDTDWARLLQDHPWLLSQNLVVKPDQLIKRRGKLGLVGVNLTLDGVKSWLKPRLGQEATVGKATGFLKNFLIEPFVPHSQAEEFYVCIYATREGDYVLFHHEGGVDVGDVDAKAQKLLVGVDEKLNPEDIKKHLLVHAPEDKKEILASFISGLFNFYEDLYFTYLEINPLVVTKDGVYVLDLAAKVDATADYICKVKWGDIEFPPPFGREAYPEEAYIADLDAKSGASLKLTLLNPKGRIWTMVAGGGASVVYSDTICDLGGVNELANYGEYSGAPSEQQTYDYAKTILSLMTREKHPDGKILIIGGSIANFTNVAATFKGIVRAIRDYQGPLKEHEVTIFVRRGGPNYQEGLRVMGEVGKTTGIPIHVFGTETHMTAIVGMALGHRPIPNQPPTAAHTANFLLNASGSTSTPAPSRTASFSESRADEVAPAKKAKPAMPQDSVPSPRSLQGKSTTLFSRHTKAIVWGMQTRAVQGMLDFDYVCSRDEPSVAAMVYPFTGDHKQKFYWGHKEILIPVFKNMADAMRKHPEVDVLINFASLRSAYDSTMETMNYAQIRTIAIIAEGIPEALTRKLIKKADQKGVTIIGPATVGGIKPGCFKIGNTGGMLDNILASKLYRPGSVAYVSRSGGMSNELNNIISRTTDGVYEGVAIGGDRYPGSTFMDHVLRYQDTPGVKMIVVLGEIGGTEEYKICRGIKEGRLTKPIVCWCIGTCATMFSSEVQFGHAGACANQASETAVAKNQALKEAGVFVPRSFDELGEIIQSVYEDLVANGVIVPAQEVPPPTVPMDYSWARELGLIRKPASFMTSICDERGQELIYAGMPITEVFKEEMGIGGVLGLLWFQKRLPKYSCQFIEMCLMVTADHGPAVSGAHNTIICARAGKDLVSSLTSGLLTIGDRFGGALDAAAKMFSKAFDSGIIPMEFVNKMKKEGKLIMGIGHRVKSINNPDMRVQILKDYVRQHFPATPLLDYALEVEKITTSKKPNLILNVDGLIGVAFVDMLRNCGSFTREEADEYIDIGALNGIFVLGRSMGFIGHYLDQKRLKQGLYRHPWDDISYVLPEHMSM
Text: In their U.S. Patent, the Inventors addressed an important issue regarding the bioavailability of the HCA compounds. The U.S. Pat. No. 5,783,603 patent described a manufacturing process leading to a unique structure for a potassium salt of HCA, which facilitated its transport across biological membranes, effectively delivering more HCA into the cytosol for the competitive inhibition of ATP citrate lyase. […] Therefore, a 10-fold excess amount of potassium HCA is needed outside of the target cell in order to achieve a concentration of 1/10 that amount in the cytosol. This finding of relatively poor bioavailability of HCA, was confirmed in pre-clinical experiments (14), and points out the need to further improve the bioavailability and efficacy of HCA.

ATP citrate lyase [7] = molecular target: T1, ATP citrate lyase; conditions: cited from earlier work
[8] = TPA 1 nmol + GAR 0.1 umol topical on ear
[9] = TPA 1 nmol + GAR 0.5 umol topical on ear

C=C(C)[C@@H](CC=C(C)C)C[C@@]12C[C@@H](CC=C(C)C)C(C)(C)[C@@](CC=C(C)C)(C(=O)C(C(=O)c3ccc(O)c(O)c3)=C1O)C2=O [GAR, garcinol]
Body weight ([1]; 5 weeks): 32.8 ± 0.37 gm
Body weight ([1]; 7 weeks): 33.9 ± 0.14 gm
Body weight ([1]; 10 weeks): 36.4 ± 0.55 gm
AC per colon [2]: 7.8
AC per colon, percentage in parentheses (reduction versus control) [2]: 31.6%
parametrial fat [3]: 1.21 ± 0.18 gm
retroperitoneal fat [3]: 0.85 ± 0.01 gm
Body weight [3]: 37.3 ± 1.07 gm
Percent Inhibition of ear edema (TPA-induced ear edema; [8]): 38.5%
Weight per punch (TPA-induced ear edema; [8]): 12.4 ± 0.81 mg
Percent Inhibition of ear edema (TPA-induced ear edema; [9]): 77.5%
Weight per punch (TPA-induced ear edema; [9]): 9.25 ± 0.66 mg

O=C(O)CC(O)(C(=O)O)C(O)C(=O)O (stereo not drawn) [HCA, 1,2-dihydroxypropane-1,2,3-tricarboxylic acid]
Body weight ([1]; 5 weeks): 32.5 ± 0.42 gm
Body weight ([1]; 7 weeks): 34.5 ± 0.59 gm
Body weight ([1]; 10 weeks): 36.8 ± 0.33 gm
AC per colon [2]: 7.9
AC per colon, percentage in parentheses (reduction versus control) [2]: 30.7%
parametrial fat [3]: 1.24 ± 0.06 gm
retroperitoneal fat [3]: 0.79 ± 0.04 gm
Body weight [3]: 37.9 ± 0.66 gm
inhibition of ATP citrate lyase enzyme (ATP citrate lyase enzyme): potent linear competitive inhibitor
food intake [4]: consumed less food
hepatic synthesis of fatty acids and cholesterol [4]: significantly diminished
weight loss and cumulative food intake [5]: weight loss with no decrease in cumulative food intake

O=C([O-])CC(O)(C(=O)[O-])C(O)C(=O)[O-].[K+].[K+].[K+] (stereo not drawn) [potassium HCA]
excess needed outside the target cell over cytosol concentration (ATP citrate lyase [6]): 10 fold
concentration needed in the cytosol to effectively inhibit ATP citrate lyase (ATP citrate lyase [7]; cytosol): 0.5 mM
extracellular concentration that could inhibit ATP citrate lyase (ATP citrate lyase [7]; hepatic cells, extracellular): 5 mM
